Common to all, as to format: biochemical
Holding throughout (conditions): continuous assay 60 min, reaction initiated by adding enzyme

One test concerns the target MCH-5 (Homo sapiens, UniProt Q14790). The test can be described thus: Dissociation constant Ki and irreversible rate constant k3 for irreversible inhibitors, Mch5. From the text:
(§1) For the irreversible inhibition of a ICE/ced-3 Family Protease enzyme with a competitive irreversible inhibitor; using the model represented by the following formulas: […]
(§2) The product formation at time t may be expressed as:
(§3) [formula] where E, I, EI and E-I denote the active enzyme, inhibitor, non-covalent enzyme-inhibitor complex and covalent enzyme-inhibitor adduct, respectively. The Ki value is the overall dissociation constant of the reversible binding steps, and k3 is the irreversible rate constant. The [S] and Ks values are the substate concentration and dissociation constant of the substrate bound to the enzyme, respectively. [E]^T is the total enzyme concentration.
(§4) The above equations were used to determine the Ki and k3 values of a given inhibitor bound to a ICE/ced-3 family protease. Thus, a continuous assay was run for sixty minutes at various concentrations of the inhibitor and the substrate. The assay was formulated essentially the same as described above for generating the data in Table 1, except that the reaction was initiated by adding the enzyme to the substrate-inhibitor mixture. The Ki and k3 values were obtained by simulating the product AMC formation as a function of time according to Equation 1.
(§5) The reference compound for this assay was Cbz-ValAlaAsp-CH2F and the values are denoted in Table 2 as “Reference”. The Ki values in Table 2 are in micromolar (μM). The k3/Ki values are in moles^−1 seconds^−1 (M^−1s^−1).

A further test concerns the target T1, MCH-2 (Homo sapiens, UniProt P55212).
T1 sequence (P55212 24-179 limits assumed): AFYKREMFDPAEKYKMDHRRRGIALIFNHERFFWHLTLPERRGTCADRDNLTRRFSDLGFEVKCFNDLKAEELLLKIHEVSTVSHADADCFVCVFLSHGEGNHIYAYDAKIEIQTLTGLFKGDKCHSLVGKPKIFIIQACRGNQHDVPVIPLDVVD
T1 sequence (P55212 194-293 limits assumed): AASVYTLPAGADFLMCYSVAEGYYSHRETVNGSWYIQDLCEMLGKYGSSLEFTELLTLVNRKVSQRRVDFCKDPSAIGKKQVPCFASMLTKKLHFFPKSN
The test can be described thus: Dissociation constant Ki and irreversible rate constant k3 for irreversible inhibitors, Mch2.
Excerpt: as §1, §2, §3, §4, §5

In the next test the target is T2, mICE (Mus musculus, UniProt P29452).
T2 sequence (P29452 123-296 limits assumed): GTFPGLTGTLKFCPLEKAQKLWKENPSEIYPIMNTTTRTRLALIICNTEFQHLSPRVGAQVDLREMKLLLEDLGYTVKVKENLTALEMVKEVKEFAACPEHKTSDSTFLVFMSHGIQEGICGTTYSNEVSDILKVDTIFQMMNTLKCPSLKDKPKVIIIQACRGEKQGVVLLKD
T2 sequence (P29452 315-402 limits assumed): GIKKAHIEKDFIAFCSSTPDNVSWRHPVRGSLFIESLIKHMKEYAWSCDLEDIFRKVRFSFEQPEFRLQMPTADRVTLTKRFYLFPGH
As to the kind of experiment: Dissociation constant Ki and irreversible rate constant k3 for irreversible inhibitors, ICE.
Excerpt: as §1, §2, §3, §4, §5

The next test deals with T3, CPP32 (Homo sapiens, UniProt P42574).
T3 sequence (P42574 29-175 limits assumed): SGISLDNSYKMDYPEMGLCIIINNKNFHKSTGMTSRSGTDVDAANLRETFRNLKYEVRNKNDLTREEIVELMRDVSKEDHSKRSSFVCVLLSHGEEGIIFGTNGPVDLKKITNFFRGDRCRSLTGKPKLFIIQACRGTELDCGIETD
T3 sequence (P42574 176-277 limits assumed): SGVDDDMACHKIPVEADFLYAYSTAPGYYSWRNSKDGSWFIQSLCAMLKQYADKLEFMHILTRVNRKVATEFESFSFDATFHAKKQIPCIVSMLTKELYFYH
As to the kind of experiment: Dissociation constant Ki and irreversible rate constant k3 for irreversible inhibitors, CPP32.
Excerpt: as §1, §2, §3, §4, §5

Sequence of MCH-5 (Q14790 217-374 limits assumed, species assumed): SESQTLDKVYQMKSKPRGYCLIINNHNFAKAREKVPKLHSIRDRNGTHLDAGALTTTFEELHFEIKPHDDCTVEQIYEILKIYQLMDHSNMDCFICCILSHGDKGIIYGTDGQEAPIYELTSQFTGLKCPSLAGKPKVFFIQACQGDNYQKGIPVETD
Sequence of MCH-5 (Q14790 385-479 limits assumed, species assumed): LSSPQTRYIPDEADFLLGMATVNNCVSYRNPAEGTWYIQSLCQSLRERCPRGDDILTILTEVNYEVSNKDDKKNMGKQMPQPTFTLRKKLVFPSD

Regarding `CC(C)[C@H](NC(=O)COc1cccc2ccccc12)C(=O)N[C@@H](CC(=O)O)C(=O)COc1ccc(F)c(F)c1` [Example 72], on MCH-5, the Ki came out at 1040 nM and the “MCH-5 k3/Ki” value was 120 M⁻¹ s⁻¹. On MCH-2, the Ki worked out at 1160 nM and the “MCH-2 k3/Ki” value amounted to 90 M⁻¹ s⁻¹. On mICE, the Ki turned out to be 718 nM and the “mICE k3/Ki” value is reported as 1,620 M^−1s^−1. Also, on CPP32, the “CPP32 k3/Ki” value is recorded as 6,460 M^−1s^−1 and the Ki worked out at 90 nM.

Consider `CC(C)[C@H](NC(=O)COc1ccc2ccccc2c1)C(=O)NC(CC(=O)O)C(=O)CF` (mixture of isomers) [Example 54], for which, at MCH-5, the Ki is 59 nM and the “MCH-5 k3/Ki” value was 32,300 M^−1s^−1. Moreover, on MCH-2, the Ki turned out to be 57 nM and the “MCH-2 k3/Ki” value is 64,400 M^−1s^−1. Also, at mICE, the Ki is 1090 nM and the “mICE k3/Ki” value is on record as 8,280 M^−1s^−1. Moreover, on CPP32, the “CPP32 k3/Ki” value was 59,300 M^−1s^−1 and the Ki came to 209 nM.

In the case of `CC(C)[C@H](NC(=O)CCOc1ccccc1)C(=O)N[C@@H](CC(=O)O)C(=O)COc1c(F)c(F)cc(F)c1F` [Example 160, (3S)-3-[N-(3′-(Phenoxy)Propionyl)Valinyl]Amino-5-(2,3,5,6-Tetrafluorophenoxy)-4-Oxopentanoic Acid], at MCH-5, the Ki came out at 351 nM and the “MCH-5 k3/Ki” value is 3,680 M^−1s^−1. At MCH-2, the Ki amounted to 93 nM and the “MCH-2 k3/Ki” value is listed as 36,600 M^−1s^−1. Besides, at mICE, the Ki turned out to be 1180 nM and the “mICE k3/Ki” value was 11,400 M^−1s^−1. In addition, at CPP32, the “CPP32 k3/Ki” value was 33,000 M^−1s^−1 and the Ki amounted to 132 nM.

On to `Cc1nnc(SCC(=O)[C@H](CC(=O)O)NC(=O)[C@@H](NC(=O)COc2cccc3ccccc23)C(C)C)s1` [Example 128], for which, on MCH-5, the Ki came out at 4480 nM and the “MCH-5 k3/Ki” value worked out at 0 M⁻¹ s⁻¹. Also, on MCH-2, the Ki worked out at 2410 nM and the “MCH-2 k3/Ki” value is 83 M⁻¹ s⁻¹. Further, on mICE, the Ki came to 213 nM and the “mICE k3/Ki” value is recorded as 5,480 M^−1s^−1. Also, at CPP32, the “CPP32 k3/Ki” value was 5,240 M^−1s^−1 and the Ki was determined as 254 nM.

As to `CC(C)[C@H](NC(=O)COc1cccc2ccccc12)C(=O)N[C@@H](CC(=O)O)C(=O)COc1c(F)cc(F)cc1F` [Example 78], at MCH-5, the Ki is 202 nM and the “MCH-5 k3/Ki” value is 9,080 M^−1s^−1. Besides, on MCH-2, the Ki worked out at 81 nM and the “MCH-2 k3/Ki” value was 5,140 M^−1s^−1. In addition, on mICE, the Ki came out at 137 nM and the “mICE k3/Ki” value is 20,700 M^−1s^−1. On CPP32, the “CPP32 k3/Ki” value is on record as 114,000 M^−1s^−1 and the Ki worked out at 38 nM.

`CC(C)[C@H](NC(=O)COc1cccc2ccccc12)C(=O)N[C@@H](CC(=O)O)C(=O)COc1ccnc(C(F)(F)F)n1` [Example 121]: on MCH-5, the Ki came to 276 nM and the “MCH-5 k3/Ki” value is given as 3,200 M^−1s^−1. On MCH-2, the Ki is 120 nM and the “MCH-2 k3/Ki” value is 5,150 M^−1s^−1. Also, at mICE, the Ki worked out at 242 nM and the “mICE k3/Ki” value is on record as 24,800 M^−1s^−1. Besides, at CPP32, the “CPP32 k3/Ki” value is recorded as 114,000 M^−1s^−1 and the Ki is 47 nM.

With `CC(C)[C@H](NC(=O)COc1cccc2ccccc12)C(=O)N[C@@H](CC(=O)O)C(=O)COc1cc(F)cc(F)c1F` [Example 75], at MCH-5, the Ki came to 794 nM and the “MCH-5 k3/Ki” value was 1,470 M^−1s^−1. Also, on MCH-2, the Ki amounted to 221 nM and the “MCH-2 k3/Ki” value is recorded as 1,510 M^−1s^−1. At mICE, the Ki worked out at 147 nM and the “mICE k3/Ki” value is 14,700 M^−1s^−1. Moreover, at CPP32, the “CPP32 k3/Ki” value is 60,100 M^−1s^−1 and the Ki was found to be 61 nM.

As to `CC(C)[C@H](NC(=O)COc1cccc2ccccc12)C(=O)N[C@@H](CC(=O)O)C(=O)COc1cc(C(F)(F)F)nn1-c1ccccc1` [Example 143], on MCH-5, the Ki came to 37 nM and the “MCH-5 k3/Ki” value was 14,500 M^−1s^−1. Moreover, at MCH-2, the Ki turned out to be 28 nM and the “MCH-2 k3/Ki” value is 8,500 M^−1s^−1. Besides, at mICE, the Ki is 205 nM and the “mICE k3/Ki” value is listed as 28,300 M^−1s^−1. Further, on CPP32, the “CPP32 k3/Ki” value is on record as 121,000 M^−1s^−1 and the Ki came to 50 nM.

Regarding `C[C@H](NC(=O)COc1ccc2ccccc2c1)C(=O)NC(CC(=O)O)C(=O)COc1c(F)c(F)cc(F)c1F` (stereo partly shown) [Example 176], at MCH-5, the Ki was 1160 nM and the “MCH-5 k3/Ki” value amounted to 684 M⁻¹ s⁻¹. On MCH-2, the Ki came out at 1260 nM and the “MCH-2 k3/Ki” value was 1,330 M^−1s^−1. Also, on mICE, the Ki came out at 480 nM and the “mICE k3/Ki” value is 11,100 M^−1s^−1. Besides, on CPP32, the “CPP32 k3/Ki” value was 4,330 M^−1s^−1 and the Ki stood at 3080 nM.

`CC(C)C[C@H](NC(=O)COc1ccccc1-c1ccccc1)C(=O)N[C@@H](CC(=O)O)C(=O)COc1c(F)c(F)cc(F)c1F` [Example 164]: at MCH-5, the Ki stood at 223 nM and the “MCH-5 k3/Ki” value is recorded as 6,190 M^−1s^−1. For the same compound, at MCH-2, the Ki stood at 23 nM and the “MCH-2 k3/Ki” value is recorded as 91,700 M^−1s^−1. Moreover, at mICE, the Ki came out at 467 nM and the “mICE k3/Ki” value is given as 24,000 M^−1s^−1. Further, on CPP32, the “CPP32 k3/Ki” value is 137,000 M^−1s^−1 and the Ki is 63 nM.

Regarding `CC(C)[C@H](NC(=O)COc1cccc2ccccc12)C(=O)N[C@@H](CC(=O)O)C(=O)COP(C)(C)=O` [Example 105], at MCH-5, the Ki worked out at 160 nM and the “MCH-5 k3/Ki” value was 3,700 M^−1s^−1. At MCH-2, the Ki stood at 233 nM and the “MCH-2 k3/Ki” value is recorded as 6,090 M^−1s^−1. For the same compound, at mICE, the Ki was found to be 413 nM and the “mICE k3/Ki” value was 18,000 M^−1s^−1. Moreover, at CPP32, the “CPP32 k3/Ki” value is reported as 44,900 M^−1s^−1 and the Ki is 341 nM.

Turning to `CC(C)[C@H](NC(=O)COc1cccc2ccccc12)C(=O)N[C@@H](CC(=O)O)C(=O)COc1c(F)c(F)c(F)c(F)c1F` [Example 80], on MCH-5, the Ki was found to be 146 nM and the “MCH-5 k3/Ki” value was 8,040 M^−1s^−1. Besides, on MCH-2, the Ki stood at 23 nM and the “MCH-2 k3/Ki” value is on record as 13,600 M^−1s^−1. At mICE, the Ki is 926 nM and the “mICE k3/Ki” value was 4,700 M^−1s^−1. Besides, at CPP32, the “CPP32 k3/Ki” value was 56,600 M^−1s^−1 and the Ki was determined as 99 nM.

With `CC(C)[C@H](NC(=O)COc1ccccc1-c1ccccc1)C(=O)N[C@@H](CC(=O)O)C(=O)COc1c(F)c(F)cc(F)c1F` [Example 152], on MCH-5, the Ki came to 66 nM and the “MCH-5 k3/Ki” value is on record as 16,600 M^−1s^−1. Further, on MCH-2, the Ki amounted to 11 nM and the “MCH-2 k3/Ki” value is recorded as 191,000 M^−1s^−1. For the same compound, at mICE, the Ki was determined as 191 nM and the “mICE k3/Ki” value is 29,300 M^−1s^−1. At CPP32, the “CPP32 k3/Ki” value is on record as 241,000 M^−1s^−1 and the Ki stood at 29 nM.

For `CC(C)[C@H](NC(=O)COc1cccc2ccccc12)C(=O)N[C@@H](CC(=O)O)C(=O)COc1cccc(F)c1` [Example 66], on MCH-5, the Ki was determined as 406 nM and the “MCH-5 k3/Ki” value was 460 M⁻¹ s⁻¹. Also, at MCH-2, the Ki amounted to 344 nM and the “MCH-2 k3/Ki” value came out at 48 M⁻¹ s⁻¹. On mICE, the Ki was 442 nM and the “mICE k3/Ki” value was 2,700 M^−1s^−1. For the same compound, on CPP32, the “CPP32 k3/Ki” value is 17,800 M^−1s^−1 and the Ki was found to be 121 nM.

Values taken from US7157430B2, “(Substituted)acyl dipeptidyl inhibitors of the ICE/CED-3 family of cysteine proteases” (Idun Pharmaceuticals, Inc., priority 1998, dated 2007).
